Data set [1] deals with HCV replicon in cell line ET (luc-ubi-neo/ET), Huh7 human hepatoma. The experiment in a line: HCV subgenomic replicon assay, luciferase end point. Format: cell-based. The settings on record: Hepatitis C virus, read-out: Antiviral activity EC50.
Data set [2] deals with HIV-1IIIB in CEM-SS cells. The experiment in a line: Anti-HIV cytoprotection assay, acute infection model, MTS endpoint. The settings on record: Table 17, HIV-1IIIB in CEM-SS cells, 6-day incubation, read-out: Antiviral activity EC50. Format: cell-based. As to the method:
Anti-HIV activity of cyclosporine derivatives were evaluated by cytoprotection assay in an acute infection model using CEM-SS cells and either HIV-1IIIB or HIV-1 RF. Antiviral activity was determined as a reduction in virus-caused cytopathic effects when compounds prevent virus replication. Cytoprotection and compound cytotoxicity were evaluated using the tetrazollium dye MTS (Promega) to calculate cell viability following virus infection after 6-day incubation (Zhou G., et al., 2011, J. Med. Chem. 27, 7220-31; which is incorporated herein by reference).

Data set [3] has as its system rat neuronal mitochondria. The experiment in a line: Mitochondrial swelling assay (inhibition of mitochondrial permeability transition, MPT). It is filed as biochemical. Conditions: compound 100 nM added 5 minutes before Ca2+; swelling induced by 100 micromolar calcium chloride; absorbance 620nm; control 100.
Procedure: The effect of cyclosporine analogs on mitochondrial permeability transition (MPT) was determined by a modified mitochondrial swelling assay measured as an influx of Ca^2+, published by J. Blattner et al., 2001, Analytical Biochem, 295, 220-226. Briefly, rat neuronal mitochondria in an ice-cold sucrose buffer were obtained after rat whole-body perfusion and a series of centrifugation. The total protein concentration in each sample batch was determined for standardization between assays. The mitochondrial swelling was induced by 100 micromolar of Calcium Chloride. Each compound (100 nM) was added to mitochondria 5 minutes before the addition of Ca^2+. The value of absorbance at the certain wavelength (620nm) reflected the degree of mitochondrial swelling. The percentage of the swelling was calculated by comparing the absorbance in the present or absent compound of the interests.
Data set [4] is described as follows: Stability testing: epimerization of cyclosporin derivatives in methanol, monitored by HPLC. Format: physicochemical. The settings on record: for Epimerization % after 168 hours: Table 11, MeOH at 50° C.-58° C.; for Epimerization %: Table 10, MeOH at 50° C.
[5] abbreviates: Human immunodeficiency virus 1, 144 h.

The structures appear in SMILES notation. Read-outs that look alike come from different tables or passages of the source. *1 amine or outer side, *2 acyl side, *3 side chain or, on linkers, in order; H or OH if unused. Where a SMILES comes first, the peptide text is derived from it. [ ]: non-standard residue; d: D form. X3 = CC=CCC(C)C(O)C(C(=O)[*:2])N(C)[*:1]; X5 = CSCOC(C)(C)CC(C(=O)[*:2])N(C)[*:1]; X4 = CCN(CC)CCSC(C(=O)[*:2])N(C)[*:1]; NMeL = CN[CH](CC(C)C)C(=O)O; NMeV = CN[CH](C(=O)O)C(C)C; Abu = CC[CH](N)C(=O)O

For orientation: EC50 means the concentration needed to bring the measured effect to its halfway point. As to `C/C=C/C[C@@H](C)[C@@H](O)[C@H]1C(=O)N[C@@H](CC)C(=O)N(C)[C@H](CSCCN2CCOCC2)C(=O)N(C)[C@@H](CC(C)(C)O)C(=O)N[C@@H](C(C)C)C(=O)N(C)[C@@H](CC(C)C)C(=O)N[C@@H](C)C(=O)N[C@H](C)C(=O)N(C)[C@@H](CC(C)C)C(=O)N(C)[C@@H](CC(C)C)C(=O)N(C)[C@@H](C(C)C)C(=O)N1C` [[(S)-(2-(N-Morpholino)ethylthio)methyl-Sar]-3-[(γ-hydroxy)-N-MeLeu]-4-cyclosporin], the EC50 in data set [1] (Huh-7, HCV subgenomic replicon, cell line ET (luc-ubi-neo/ET) Huh7, luciferase end point) is 60 nM; in data set [1] (Huh-7, Table 14, HCV replicon luciferase), 20 nM; in data set [2] (setting [5]), 94.9 nM.

In the case of `C/C=C/C[C@@H](C)[C@@H](O)[C@H]1C(=O)N[C@@H](CC)C(=O)N(C)[C@H](CSCCN(C)C)C(=O)N(C)[C@@H](CC(C)(C)O)C(=O)N[C@@H](C(C)C)C(=O)N(C)[C@@H](CC(C)C)C(=O)N[C@@H](C)C(=O)N[C@H](C)C(=O)N(C)[C@@H](CC(C)C)C(=O)N(C)[C@@H](CC(C)C)C(=O)N(C)[C@@H](C(C)C)C(=O)N1C` (single isomer, unassigned), the EC50 in data set [2] (setting [5]) came to 118 nM.

As to `Cc1cn([C@H]2C[C@H](N=[N+]=[N-])[C@@H](CO)O2)c(=O)[nH]c1=O` [AZT], the EC50 in data set [2] turned out to be 9 nM.

As for `C/C=C/C[C@@H](C)[C@@H](O)[C@H]1C(=O)N[C@@H](CC)C(=O)N(C)[C@H](CSCCN(CC)CC)C(=O)N(C)[C@@H](CC(C)(C)O)C(=O)N[C@@H](C(C)C)C(=O)N(C)[C@@H](CC(C)C)C(=O)N[C@@H](C)C(=O)N[C@H](C)C(=O)N(C)[C@@H](CC(C)C)C(=O)N(C)[C@@H](CC(C)C)C(=O)N(C)[C@@H](C(C)C)C(=O)N1C`, in data set [3], the “Mitochondrial Swelling Relative %” value is recorded as 55.7%.

Take `CC=CCC(C)C(O)C1C(=O)NC(CC)C(=O)N(C)C(SCCN(CC)CC)C(=O)N(C)C(CC(C)(C)OCSC)C(=O)NC(C(C)C)C(=O)N(C)C(CC(C)C)C(=O)NC(C)C(=O)NC(C)C(=O)N(C)C(CC(C)C)C(=O)N(C)C(CC(C)C)C(=O)N(C)C(C(C)C)C(=O)N1C` (stereo not drawn) (cyclo([X3][Abu][X4][X5]V[NMeL]AA[NMeL][NMeL][NMeV]); configuration not given here): the “Mitochondrial Swelling Relative %” value in data set [3] is 52.4%.

Consider `C/C=C/C[C@@H](C)[C@@H](O)[C@H]1C(=O)N[C@@H](CC)C(=O)N(C)[C@H](CSCCCN2CCOCC2)C(=O)N(C)[C@@H](CC(C)(C)O)C(=O)N[C@@H](C(C)C)C(=O)N(C)[C@@H](CC(C)C)C(=O)N[C@@H](C)C(=O)N[C@H](C)C(=O)N(C)[C@@H](CC(C)C)C(=O)N(C)[C@@H](CC(C)C)C(=O)N(C)[C@@H](C(C)C)C(=O)N1C`, for which the “Epimerization % after 168 hours” value in data set [4] was 0%.

Take `C/C=C/C[C@@H](C)[C@@H](O)[C@H]1C(=O)N[C@@H](CC)C(=O)N(C)[C@H](CSCCN(CC)CC)C(=O)N(C)[C@@H](CC(C)C)C(=O)N[C@@H](C(C)C)C(=O)N(C)[C@@H](CC(C)C)C(=O)N[C@@H](C)C(=O)N[C@H](C)C(=O)N(C)[C@@H](CC(C)C)C(=O)N(C)[C@@H](CC(C)C)C(=O)N(C)[C@@H](C(C)C)C(=O)N1C` (single isomer, unassigned): the “Epimerization % after 168 hours” value in data set [4] came out at 0%.

For `C/C=C/C[C@@H](C)[C@@H](O)[C@H]1C(=O)N[C@@H](CC)C(=O)N(C)[C@H](SCCCN(CC)CC)C(=O)N(C)[C@@H](CC(C)(C)O)C(=O)N[C@@H](C(C)C)C(=O)N(C)[C@@H](CC(C)C)C(=O)N[C@@H](C)C(=O)N[C@H](C)C(=O)N(C)[C@@H](CC(C)C)C(=O)N(C)[C@@H](CC(C)C)C(=O)N(C)[C@@H](C(C)C)C(=O)N1C`, the Epimerization % in data set [4] (29 hours) is reported as 0%; in data set [4] (77 hours) it was “Less than 1%”; in data set [4] (125 hours), around 12%.

The values above are taken from patent US10647747B2, “Cyclosporin derivatives and uses thereof” (S&T Global Inc., priority 2010, dated 2020).
